Data on five molecules can be found in ChEMBL document CHEMBL3872213, “Synthesis and biological activity of furoxan derivatives against Mycobacterium tuberculosis” (Eur J Med Chem, 2016).

In assay [1] the test system is Mycobacterium tuberculosis. Nature of the assay: Antitubercular activity against multi-drug resistant Mycobacterium tuberculosis. Format: functional.
Assay [2] has as its system Mycobacterium tuberculosis. The experiment in a line: Antitubercular activity against clinical isolates of isoniazid/rifampicin/streptomycin/ethambutal resistant Mycobacterium tuberculosis after 7 days by REMA method. Format: functional. The conditions noted are these: 168 h.

In brackets after ≈: the same amount, converted by molar mass.

In assay [1], `O=C(N/N=C/c1ccc(O)cc1)c1ccncc1` returned an MIC90 of over 62 µM.
Regarding `O=C(N/N=C/c1cccc(Oc2no[n+]([O-])c2S(=O)(=O)c2ccccc2)c1)c1ccncc1`, the MIC90 in assay [2] amounted to 21.3 µM (≈ 9.91 µg/mL).
`O=C(N/N=C/c1ccc(Oc2no[n+]([O-])c2-c2ccccc2)cc1)c1ccncc1` had an MIC90 in assay [2] of 24.3 µM (≈ 9.75 µg/mL).
Same read-out and setting: in the case of `O=C(N/N=C/c1ccc(Oc2no[n+]([O-])c2S(=O)(=O)c2ccccc2)cc1)c1ccncc1` it was 7 µM (≈ 3.26 µg/mL); in that of `O=C(N/N=C/c1ccccc1Oc1no[n+]([O-])c1S(=O)(=O)c1ccccc1)c1ccncc1`, 50 µM (≈ 23.3 µg/mL).

Broadly, the MIC90 is the lowest concentration that inhibits either 90% of growth or 90% of the strains tested, depending on the study. The low end stands for higher susceptibility, the high end for lower susceptibility.
